{"source": "patent US11110158B2", "about": "“Prostate-associated antigens and vaccine-based immunotherapy regimens” (Pfizer Inc., priority 2012, dated 2021)", "key": {"subcutaneous TUBO tumors": {"system": "subcutaneous TUBO tumors", "test": "Subcutaneous TUBO tumor growth and survival in BALB/neuT mice, sunitinib malate with cancer vaccine", "assay_type": "in vivo, mouse", "settings": "FIG. 33D; Sutent 20 mg/kg for 34 days combined with cancer vaccine", "description": "The Anti-tumor efficacy of sunitinib malate in combination with an anti-cancer DNA vaccine was investigated in BALB/neuT transgenic female mice. Heterozygote BALB/neuT transgenic female mice that express rat Her-2 (rHer-2) tumor associate antigen were implanted subcutaneously with 1e6 TUBO cells expressing rHer-2 which are derived from the spontaneous mammary tumors of BALB/neuT mice. After 7 days post tumor cell implantation, the mice were dosed once a day orally with either vehicle or sunitinib malate at doses as indicated in the legends. Three days after the initiation of sunitinib malate therapy, the mice were immunized with regimens comprised of either (a) control vaccine that expresses an antigen that is not expressed in the tumor or the mouse or (b) DNA cancer vaccine construct that expresses a rat Her-2 antigen of SEQ ID NO: 54 (rHER2) which is expressed in the tumor and the mouse. The tumor growth rate was analyzed by measuring the long (a) and short diameter (b) of the subcutaneous TUBO tumors twice a week and calculating the volume as a×b^2×0.5 mm^3. The average and standard error of the mean of the tumor volumes from 10 mice per each treatment group are plotted against the days after tumor implantation. […]"}, "[1]": {"test": "Kinetics of blood sunitinib by LC/MS/MS in BALB/neuT mice with subcutaneous TUBO tumors", "assay_type": "in vivo, mouse", "settings": "for concentration at 2 h: peak at 2 hrs", "experimental": "The kinetics of blood sunitinib was investigated in BALB/neuT mice with subcutaneous TUBO tumors. Briefly, 20 mice per each treatment group were given Sutent orally, at 20 mg/kg once a day (SID) or at 10 mg/kg twice a day (BID) with 6 hr intervals, 6 days after tumor implantation. Submandibular blood from 2-3 mice was collected into lithium heparin tubes at several time points after Sutent dosing as indicated (0, 2, 4, 6, 8, 10, 12, and 24 hr). The plasma supernatant was recovered from the tubes after centrifugation at ×1000 g for 15 min. and the sunitinib levels from the plasma samples were measured by LC/MS/MS. The mean and standard error of the mean of each group at each time point is plotted."}, "[2]": {"system": "Myeloid Derived Suppressor Cells (MDSC)", "test": "Adoptively transferred MDSC recovered from spleen of BALB/c mice dosed with sunitinib", "assay_type": "in vivo, mouse", "settings": "CFSE+, CD3−, GR1+, CD11b+ cells, 2 days post adoptive transfer, vehicle 17470 +/− 2017", "description": "To generate MDSC enriched splenocytes, TUBO cells (1×10^6) were implanted into the flanks of 5 BALB/neuT mice, and left for approx. 20-30 days until tumor volume reached between 1000-1500 mm^3. Mice were then sacrificed, spleens removed and the MDSC enriched splenocytes recovered. Splenocytes were labeled for 10 minutes with 5 μM CFSE, washed with PBS and counted. Labeled cells were subsequently resuspended at 5×10^7 splenocytes/ml in PBS solution and adoptively transferred via an i.v. tail vein injection into naïve BALB/c recipient mice. Three days prior to adoptive transfer, the recipient mice began bi-daily dosing with vehicle or sunitinib malate (Sutent) at 5 mg/kg, 10 mg/kg and 20 mg/kg. Following adoptive transfer, recipient mice continued to receive bi-daily dosing of Vehicle or sunitinib for two further days, after which point the mice were sacrificed, spleens removed, splenocytes recovered and processed for phenotypic analysis.\nSplenocytes were counted and resuspended at 5×10^6 cells/ml in FACS staining buffer (PBS, 0.2% (w/v) bovine serum albumin, and 0.02% (w/v) Sodium Azide). For flow cytometry staining of splenocytes, 2.5×10^6 cells were first incubated with anti-bodies to CD16/CD32, 10 minutes at 4° C., to block Fc receptors and minimize non-specific binding. Splenocytes were then stained for 20 minutes at 4° C. with appropriate fluorophore conjugated antibodies (Biolegend) to murine cell surface markers. For T cells (anti-CD3 (Pacific Blue), clone 17A2) and for MDSC (anti-GR-1 (APC), clone RB6-8C5 and anti-CD11b (PerCp Cy5.5), clone M1/70). A live/dead stain was also included. […] To monitor the effect of Sunitinib or Vehicle on the adoptively transferred MDSC survival, we calculated the percentage of CFSE+,CD3−,GR1+,CD11b+ in the live, singlet gate. We then determined the number of adoptively transferred MDSC per spleen by calculating what actual cell number the percentage represented of total splenocytes count. Data was analyzed by FloJo and Graph pad software."}, "phosphorylated STAT3": {"system": "phosphorylated STAT3", "test": "Phosphor-STAT3 ELISA of spleen extracts of TUBO tumor bearing BALB/neuT mice after Sutent", "assay_type": "in vivo, mouse", "experimental": "(§1) The acute effect of Sutent on the phosphorylation status of STAT3 in the spleen was investigated in a subcutaneous tumor mouse model to evaluate the direct immunomodulatory effects of the compound. Briefly, 10-12 week old female BALB/neuT mice were implanted with 1e6 TUBO cells subcutaneously in the right flank. After forty one days post tumor implant, Sutent was given by oral gavage at 20 mg/kg. At 0, 1, 3, 7 and 24 hrs post Sutent dosing, three animals per timepoint were sacrificed under IAUCUC guidelines and spleens were immediately snap frozen in liquid nitrogen to preserve the phosphorylation status. Spleens from female BALB/c mice were snap frozen to use as healthy mice controls.\n(§2) Snap frozen spleens were homogenized at 100 mg tissue per 500 μL lysis buffer (70 mM NaCl, 50 mM β-glycerol phosphate, 10 mM HEPES, 1% Triton X-100, 100 mM Na3VO4, 100 mM PMSF, 1 mg/mL leupeptin) using a polytron tissue homogenizer. Resulting digests were centrifuged at 10,000 g for 15 minutes. The supernatant was isolated and protein concentrations were determined using BCA protein assay kit (Pierce, Rockford, Ill.). Forty micrograms of protein were added to each well of either a total STAT3 (eBioscience, cat no. 85-86101-11) or phosphor-STAT3 (eBioscience, cat no. 85-86102-11) ELISA Kit. Relative levels of either protein were compared with standards provided in the kit and with standards purchased independently (Signaling Technologies, cat no. 9333-S)."}, "total STAT3": {"system": "total STAT3", "test": "Total STAT3 ELISA of spleen extracts of TUBO tumor bearing BALB/neuT mice after Sutent", "assay_type": "in vivo, mouse", "experimental": "as §1, §2"}, "[3]": {"settings": "Mendel et al.; cited from earlier work"}, "[4]": {"settings": "intravenous infusion, cited from earlier work"}, "293 cells": {"system": "293 cells", "test": "Expression of PSMA constructs in transfected 293 cells by FACS", "assay_type": "cell-based", "settings": "293 cells transfected with PJV7563 vector, stained with mouse anti-PSMA antibody three days later; cell surface expression", "experimental": "The expression of the PSMA cytosolic, secreted, and modified antigens was determined by FACS. Mammalian 293 cells were transfected with the PJV7563 PMED vectors encoding the various immunogenic PSMA polypeptides. Three days later, the 293 cells were stained with mouse anti-PSMA antibody, followed with a fluorescent conjugated (FITC) rat anti-mouse secondary antibody."}, "human PSMA": {"system": "human PSMA", "test": "ELISA, serum anti-PSMA antibody titers after PMED DNA vaccination", "assay_type": "in vivo", "settings": "Example 7, FIG. 28; Pasteur and C57BL/6 mice; day 35; within the same strain", "experimental": "Serum was subjected to enzyme-linked immunosorbent assays (ELISA) to determine the anti-PSMA and anti-PSCA antibody titers. In brief, ELISA plates were coated with 1 μg/ml of human PSMA or PSCA and incubated overnight at 4° C. Plates were then blocked and incubated at RT for 1 h with 1% bovine serum albumin (BSA). Each serum sample was serially diluted in duplicate starting at a 1:100 dilution and incubated for 1 h at RT. After washing, a horseradish-peroxidise (HRP)-conjugated goat anti-mouse polyclonal IgG antibody was incubated at RT for 1 h. After washing, the TMB Peroxidase EIA-Substrate was incubated at RT for 30 min. The colorimetric reaction was stopped by addition 1N sulfuric acid and the absorbance then read at 450 nm. Titration curves were plotted for each serum sample (sample dilution versus absorbance). The serum titer (subsequently transformed into reciprocal titer) was then taken as the most dilute serum sample tested with an optical density (OD) value of above the lower limit of detection (LLOD; background plus 3 standard deviations) or the serum dilution calculated to achieve an OD value of 1.0. […]\nThe anti-PSMA and anti-PSCA antibody titers in the serum was determined using ELISA as described in Example 5. […]\nAntibody responses induced by the modified and full-length PSMA vaccines were measured in serum from each animal collected on day 35. […]"}, "[5]": {"system": "hPSMA full-length protein", "test": "IFN-γ ELISPOT, hPSMA modified versus full-length DNA vaccine in C57BL/6 mice", "assay_type": "in vivo, human", "settings": "Example 7, FIG. 26; C57BL/6, PMED days 0, 14, 28; day 35", "from_the_text": "The immune responses induced by DNA vaccination using a construct encoding an immunogenic PSMA polypeptide (the “human PSMA modified antigen” or “hPSMA modified”) consisting 15-750 amino acids (aa) of the native human PSMA protein of SEQ ID NO: 1 were compared with those induced by the native human full-length PSMA protein (hPSMA full length). Groups of female C57BL/6 mice or female Pasteur (HLA-A2/DR1) transgenic mice were primed on day 0 and boosted on days 14, 28 by PMED administration with a 2 μg dose of a DNA vaccine encoding either hPSMA full-length or hPSMA modified protein. Mice were bled and sacrificed on day 35 (7 days after the third vaccination) and T cell immune responses against the hPSMA full-length protein were determined in splenocytes by IFN-γ ELISPOT assay. For C57BL/6 mice, single cell suspensions of 5×10^5 splenocytes from individual animals were plated per well with […] purified hPSMA protein, 5×10^4 TRAMP-C2 cells alone, or TRAMP-C2 cells expressing hPSMA or a PSMA-PSA-PSCA fusion protein. […] Responses in Pasteur mice were also determined using 10 μg/ml purified PSMA protein or 5×10^4 SK-Mel5 cells that had been transduced with Adenoviral vectors expressing a control protein (Ad-eGFP) or the full-length human PSMA protein (Ad-hPSMA). […] The number of IFN-γ SFC was counted by a CTL reader. […]"}, "[6]": {"settings": "1 hr after Sutent 20 mg/kg oral gavage"}, "[7]": {"settings": "3 hrs after Sutent 20 mg/kg oral gavage"}, "[8]": {"settings": "7 hrs after Sutent 20 mg/kg oral gavage"}, "[9]": {"settings": "24 hrs after Sutent 20 mg/kg oral gavage"}}, "note": "Where “and” joins values, the source holds several entries; their conditions need not be identical. Identical values can stand only once. Like-named read-outs stand apart in the source and are kept apart here.", "data": [{"compound": "CCN(CC)CCNC(=O)c1c(C)[nH]c(/C=C2\\C(=O)Nc3ccc(F)cc32)c1C", "note": "[Sunitinib, butanedioic acid, hydroxy-, (2S)-, compound with N-[2-(diethylamino)ethyl]-5-[(Z)-(5-fluoro-1,2-dihydro-2-oxo-3H-indol-3-ylidine)methyl]-2,4-dimethyl-1H-pyrrole-3-carboxamide (1:1)]", "values": [{"measurement": "animals with significantly impaired progression of the tumor after discontinuation of Sutent treatment", "setting": "subcutaneous TUBO tumors", "result": "60 % of the animals"}, {"measurement": "time by which sunitinib cleared the blood", "setting": "[1]; 10 mg/kg BID orally, after the second dose", "result": "≤ 18", "unit": "h"}, {"measurement": "time by which sunitinib cleared the blood", "setting": "[1]; 20 mg/kg SID orally, post Sutent dosing", "result": "≤ 12", "unit": "h"}, {"measurement": "concentration at 2 h", "setting": "[1]; BALB/neuT, mouse, plasma, oral, 10 mg/kg BID (6 hr interval) orally, read-out: blood sunitinib level", "result": "> 50", "unit": "ng/mL"}, {"measurement": "concentration at 4 h", "setting": "[1]; BALB/neuT, mouse, plasma, oral, 10 mg/kg BID orally, by 4 hrs, read-out: blood sunitinib level", "result": "< 50", "unit": "ng/mL"}, {"measurement": "concentration at 6 h", "setting": "[1]; BALB/neuT, mouse, plasma, oral, 20 mg/kg SID orally, at 6 hrs, read-out: blood sunitinib level", "result": 50, "unit": "ng/mL"}, {"measurement": "concentration at 2 h", "setting": "[1]; BALB/neuT, mouse, plasma, oral, 20 mg/kg SID orally, read-out: blood sunitinib level", "result": "> 50", "unit": "ng/mL"}, {"measurement": "MDSC #/spleen Mean +/− SEM", "setting": "[2]; Sunitinib 5 mg/kg bi-daily", "result": "10980 +/− 1082"}, {"measurement": "MDSC #/spleen Mean +/− SEM", "setting": "[2]; Sunitinib 10 mg/kg bi-daily", "result": "4207 +/− 338"}, {"measurement": "MDSC #/spleen Mean +/− SEM", "setting": "[2]; Sunitinib 20 mg/kg bi-daily", "result": "4440 +/− 440"}, {"measurement": "Phospho-STAT3 relative level, Mean", "setting": "phosphorylated STAT3; [6]", "result": 0.23}, {"measurement": "Phospho-STAT3 relative level, individual values", "setting": "phosphorylated STAT3; [6]", "result": "0.26 and 0.25 and 0.19"}, {"measurement": "Phospho-STAT3 relative level, Mean", "setting": "phosphorylated STAT3; [7]", "result": 0.19}, {"measurement": "Phospho-STAT3 relative level, individual values", "setting": "phosphorylated STAT3; [7]", "result": "0.19 and 0.15 and 0.22"}, {"measurement": "Phospho-STAT3 relative level, Mean", "setting": "phosphorylated STAT3; [8]", "result": 0.27}, {"measurement": "Phospho-STAT3 relative level, individual values", "setting": "phosphorylated STAT3; [8]", "result": "0.19 and 0.31 and 0.29"}, {"measurement": "Phospho-STAT3 relative level, Mean", "setting": "phosphorylated STAT3; [9]", "result": 1.44}, {"measurement": "Phospho-STAT3 relative level, individual values", "setting": "phosphorylated STAT3; [9]", "result": "1.54 and 1.30 and 1.47"}, {"measurement": "Total STAT3 relative level, Mean", "setting": "total STAT3; [6]", "result": 0.09}, {"measurement": "Total STAT3 relative level, individual values", "setting": "total STAT3; [6]", "result": "0.12 and 0.08 (2×)"}, {"measurement": "Total STAT3 relative level, Mean", "setting": "total STAT3; [7]", "result": 0.13}, {"measurement": "Total STAT3 relative level, individual values", "setting": "total STAT3; [7]", "result": "0.15 and 0.09 and 0.16"}, {"measurement": "Total STAT3 relative level, Mean", "setting": "total STAT3; [8]", "result": 0.08}, {"measurement": "Total STAT3 relative level, individual values", "setting": "total STAT3; [8]", "result": "0.10 and 0.07 and 0.08"}, {"measurement": "Total STAT3 relative level, Mean", "setting": "total STAT3; [9]", "result": 0.08}, {"measurement": "Total STAT3 relative level, individual values", "setting": "total STAT3; [9]", "result": 0.08}, {"measurement": "minimum sunitinib blood level necessary to effectively inhibit tumor growth in monotherapy", "setting": "[3]", "result": 50, "unit": "ng/mL"}]}, {"compound": "CP-870893: fully human agonistic CD40 monoclonal antibody, SEQ ID NO: 40 and 41", "values": [{"measurement": "maximum tolerated dose (MTD)", "setting": "[4]; patients with advanced solid tumors", "result": 0.2, "unit": "mg/kg"}, {"measurement": "dose-limiting toxicities", "setting": "[4]; phase I clinical study", "result": "grade 3 CRS and grade 3 urticaria"}]}, {"compound": "full length human PSMA (SEQ ID NO: 1): native human full-length PSMA protein (aa 1-750), SEQ ID NO: 1; tested as DNA vaccine", "values": [{"measurement": "Average mean fluorescent intensity", "setting": "293 cells", "result": 6425}, {"measurement": "serum anti-PSMA antibody titers", "setting": "human PSMA", "result": "equivalent anti-PSMA antibody titer"}, {"measurement": "IFN-γ T cell responses to TRAMP C2-PSMA or purified hPSMA protein", "setting": "[5]", "result": "equivalent T cell immune responses"}]}]}
